sDSSmod, EC50 and DSS data for 32 compounds are collected here from PMC6136712, “Ex vivo drug sensitivity testing as a means for drug repurposing in esophageal adenocarcinoma” (PLoS ONE, 2018).

Counter-ions that a name gives are not always drawn.

Assay type in all cases: cell-based, human
Experiment [1] relates to SK-GT2 cells. In words: FDA library drug sensitivity testing (CellTiter-Glo, 72 h). Conditions: SK-GT2; sDSSmod = DSSmod (patient cells) - DSSmod (normal cells). The text has this:
(§1) OE33, OE19 and SKGT2 human esophageal adenocarcinoma cell lines were obtained from the European Collection of Cell Culture ([…]). Flo1, EAC42 and EAC47 cells were established in the Capobianco Laboratory. EAC42 and EAC47 human esophageal adenocarcinoma cell lines are derived from patients undergoing surgery at the Miller School of Medicine, University of Miami. The Capobianco laboratory obtained written informed consent from all patients and approval from the Institutional Research Ethics Committee.
(§2) Drug sensitivity testing (DST) was performed as described previously. […] Individual drugs were dissolved in 100% DMSO and tested in duplicates starting at a maximal test concentration of 10μM then over a 20,000-fold concentration range to generate dose response curves. Wells with assay buffer containing DMSO served as negative controls. 1000 exponentially growing cells were seeded per well in 384-well micro-titer plates and incubated in the presence of compounds in a humidified environment at 37°C and 5% CO2. After 72 hours of treatment, cell viability was assessed by measuring ATP levels via bioluminescence (CellTiter-Glo, Promega) according to manufactures recommendations. Interpretation of curve parameters was performed according to the modified drug sensitivity scoring (DSSmod) function developed by Swords et al. […] Given in this way, the sDSSmod incorporated information on each drug’s potency, efficacy, effect range and therapeutic index, making it possible to prioritize compounds over multiple parameters using a single numerical metric. […] All calculations and scoring routines are implemented in MatLab and additional curve fitting and statistical analyses are performed in GraphPad prism.
Background: Cellular ATP, detected with luciferase, serves as a proxy for viable cell number.

Experiment [2] relates to OE33 cells. The experiment is described as above. The conditions noted are these: OE33; sDSSmod = DSSmod (patient cells) - DSSmod (normal cells).
Source text: as §1, §2

In experiment [3] the test system is normal esophageal epithelium cell line EACN42. In words: FDA library drug sensitivity testing (CellTiter-Glo, 72 h), normal control cells. More on the design: key to DSS: modified drug sensitivity score (DSSmod) from dose-response curve fit. The conditions noted are these: 72 h, EACN42 normal esophageal cells; for EC50: cell viability (ATP), max test concentration 10μM; for DSS: drug sensitivity score. In outline:
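HPV E6-E7-immortalized normal human esophageal epithelial cells, 1000 per well, exposed 72 h at 37 °C to drugs in duplicate from 10μM top concentration across a 20,000-fold range. Viability by ATP bioluminescence; DMSO wells as negative control; curves scored with modified drug sensitivity score (DSSmod).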

In experiment [4] the test system is EAC47 cells. The experiment can be described thus: FDA library drug sensitivity testing (CellTiter-Glo, 72 h). Conditions: EAC47; sDSSmod = DSSmod (patient cells) - DSSmod (normal cells).
Source text: as §1, §2

Experiment [5] deals with EAC42 cells. The description is as above. The conditions noted are these: EAC42; sDSSmod = DSSmod (patient cells) - DSSmod (normal cells).
Source text: as §1, §2

Experiment [6] deals with OE19 cells. The description is as above. The conditions noted are these: sDSSmod = DSSmod (patient cells) - DSSmod (normal cells).
Source text: as §1, §2

A word on the EC50: it is the concentration at which the effect is half-maximal. Regarding `O=c1c(-c2ccc(O)cc2)coc2cc(O)cc(O)c12` [Genistein], the values for the sDSSmod in experiment [1] and in experiment [2] were 5.117 and 5.079, respectively. The compound further returned an EC50 in experiment [3] (Homo sapiens) of more than 10000 nM. In addition, the DSS in experiment [3] worked out at 0.04.

As for `CO[C@H]1C[C@@H]2CC[C@@H](C)[C@@](O)(O2)C(=O)C(=O)N2CCCC[C@H]2C(=O)O[C@H]([C@H](C)C[C@@H]2CC[C@@H](OCCO)[C@H](OC)C2)CC(=O)[C@H](C)/C=C(\C)[C@@H](O)[C@@H](OC)C(=O)[C@H](C)C[C@H](C)/C=C/C=C/C=C/1C` [Everolimus], the sDSSmod in experiment [4] is listed as -5.697; in experiment [1] it was -5.054; in experiment [2] it was -5.493. In experiment [3] (Homo sapiens), this compound displayed an EC50 of 9000 nM. In experiment [3], this compound had a DSS of 7.57.

Compound `COc1cc2nccc(Oc3ccc(NC(=O)C4(C(=O)Nc5ccc(F)cc5)CC4)cc3)c2cc1OC` [Cabozantinib] gave a sDSSmod in experiment [2] of 19.55. The DSS in experiment [3] turned out to be 0.

In turn, `COc1ccccc1OCC(O)CN1CCN(CC(=O)Nc2c(C)cccc2C)CC1` (centres unmarked) [Ranolazine] gave a sDSSmod in experiment [2] of 25.89. In experiment [3], this compound yielded a DSS of 0.

As to `COc1cc([C@@H]2c3cc4c(cc3[C@@H](O[C@@H]3O[C@@H]5CO[C@@H](C)O[C@H]5[C@H](O)[C@H]3O)[C@H]3COC(=O)[C@H]23)OCO4)cc(OC)c1O` [Etoposide], the sDSSmod in experiment [5] is recorded as 5.049; in experiment [2], 6.55. The compound also returned a 50% effective concentration (EC50) in experiment [3] (Homo sapiens) of more than 10000 nM. This compound also had a DSS in experiment [3] of 4.68.

With `Nc1ccn([C@@H]2O[C@H](CO)[C@@H](O)C2(F)F)c(=O)n1` [Gemzar], the sDSSmod is listed as 10.03 in experiment [4], -11.949 in experiment [6], 17.37 in experiment [5] and 11.79 in experiment [2]. Further, in experiment [3], the EC50 was 770 nM. The compound also came in with a DSS in experiment [3] of 16.2.

As to `CN(Cc1cnc2nc(N)nc(N)c2n1)c1ccc(C(=O)N[C@@H](CCC(=O)O)C(=O)O)cc1` [Abitrexate, Methotrexate], the sDSSmod is on record as 35.78 in experiment [4], -21.1435 in experiment [6], 31.2825 in experiment [5] and 16.69 in experiment [2]. Further, the concentration for a half-maximal effect (EC50) in experiment [3] (Homo sapiens) came to 40 nM. Moreover, in experiment [3], the DSS stood at 21.14.

On to `C[C@H](NC(=O)Cc1cc(F)cc(F)c1)C(=O)N[C@H](C(=O)OC(C)(C)C)c1ccccc1` [DAPT], for which the sDSSmod in experiment [1] is 13.54. The compound further displayed a DSS in experiment [3] of 0.

`Nc1nc(Cl)nc2c1ncn2[C@H]1C[C@H](O)[C@@H](CO)O1` [Cladribine]: the sDSSmod in experiment [4] is 5.947; in experiment [5], 7.959. The compound further came in with a DSS in experiment [3] of 0.13.

`Nc1ccn([C@@H]2O[C@H](CO)[C@@H](O)[C@@H]2O)c(=O)n1` [Cytarabine] yielded a sDSSmod in experiment [2] of 6.525. Moreover, the half-maximal effective concentration (EC50) in experiment [3] (Homo sapiens) is more than 10000 nM. In experiment [3], the DSS stood at 1.34.

With `O=c1oc2c(O)c(O)cc3c(=O)oc4c(O)c(O)cc1c4c23` [Ellagic acid], in experiment [2], the sDSSmod is 7.542. Moreover, the DSS in experiment [3] was 0.

As to `O=S(=O)(O)CCS` [Mesna], the sDSSmod in experiment [1] is given as 8.021. Also, the DSS in experiment [3] is 0.

As for `Nc1ncn([C@@H]2O[C@H](CO)[C@@H](O)[C@H]2O)c(=O)n1` [Azacitidine], the sDSSmod in experiment [2] stood at 23.96. This compound came in with a DSS in experiment [3] of 0.

With `Cn1cnc([N+](=O)[O-])c1Sc1ncnc2nc[nH]c12` [Azathioprine], the sDSSmod in experiment [4] was determined as 7.783; in experiment [1], 5.733; in experiment [5], 6.181. Further, in experiment [3], the DSS is 0.02.

Consider `O=c1[nH]cc(F)c(=O)[nH]1` [Adrucil], for which the sDSSmod in experiment [2] was 10.56. Further, the half-maximal effective concentration (EC50) in experiment [3] (Homo sapiens) was found to be 920 nM. In experiment [3], this compound showed a DSS of 4.47.

Regarding `CC(C)c1nc(CN(C)C(=O)N[C@@H](CCN2CCOCC2)C(=O)N[C@H](CC[C@H](Cc2ccccc2)NC(=O)OCc2cncs2)Cc2ccccc2)cs1` [Cobicistat], the sDSSmod in experiment [1] is given as 7.685. In addition, in experiment [3], the DSS is 0.

As for Bacitracin zinc, the sDSSmod in experiment [2] came to 17.07. The DSS in experiment [3] was 0.

Take `CN(C)CCOc1ccc(/C(=C(/CCCl)c2ccccc2)c2ccccc2)cc1` [Toremifene Citrate]: the sDSSmod in experiment [2] came out at 23.6335. Moreover, the DSS in experiment [3] turned out to be 0.

In the case of `S=c1[nH]cnc2nc[nH]c12` [Mercaptopurine], the sDSSmod is given as 10.9 in experiment [4] and 10.48 in experiment [5]. The compound also showed a 50% effective concentration (EC50) in experiment [3] (Homo sapiens) of more than 10000 nM. Besides, the DSS in experiment [3] turned out to be 0.05.

With `C=CC(=O)N1CCC[C@@H](n2nc(-c3ccc(Oc4ccccc4)cc3)c3c(N)ncnc32)C1` [Ibrutinib], the sDSSmod in experiment [6] stood at 31.18; in experiment [1], 39.31. In experiment [3], this compound gave a DSS of 0.

`Nc1nc2nc[nH]c2c(=S)[nH]1` [Thioguanine]: the sDSSmod in experiment [4] was 8.364; in experiment [1], 6.838; in experiment [5], 9.961; in experiment [2], 42.58. Moreover, in experiment [3] (Homo sapiens), the EC50 stood at 3160 nM. For the same compound, the DSS in experiment [3] stood at 4.62.

Regarding `O=c1[nH]c(=O)n([C@H]2C[C@H](O)[C@@H](CO)O2)cc1F` [Floxuridine], the sDSSmod in experiment [4] was found to be 35.54; in experiment [5] it was 40.61; in experiment [2], 13.67. In addition, in experiment [3] (Homo sapiens), the EC50 came out at 830 nM. The DSS in experiment [3] turned out to be 4.9.

With `COc1cccc2c1C(=O)c1c(O)c3c(c(O)c1C2=O)C[C@@](O)(C(=O)CO)C[C@@H]3O[C@H]1C[C@H](N)[C@@H](O)[C@H](C)O1` [Epirubicin Hydrochloride], the sDSSmod in experiment [6] is -11.4055; in experiment [1], -9.535; in experiment [2] it was 6.778. In experiment [3] (Homo sapiens), the EC50 turned out to be 1200 nM. Besides, the DSS in experiment [3] is 18.98.

With `CNC(=O)CN(CCN(CCN(CC(=O)[O-])CC(=O)NC)CC(=O)[O-])CC(=O)[O-].[Gd+3]` [Gadodiamide], the sDSSmod in experiment [2] is listed as 29.62. Further, in experiment [3], the DSS is on record as 0.

Turning to `Nc1nc(O)c2[nH]nnc2n1` [Azaguanine-8], the figures for the sDSSmod in experiment [5] and in experiment [2] were 6.077 and 8.322, respectively. In addition, the DSS in experiment [3] is given as 2.04.

`CC(=O)[C@]1(O)Cc2c(O)c3c(c(O)c2[C@@H](O[C@H]2C[C@H](N)[C@H](O)[C@H](C)O2)C1)C(=O)c1ccccc1C3=O` [Idarubicin HCl]: the sDSSmod in experiment [6] was -22.4296; in experiment [1], -17.1644; in experiment [5], 6.506; in experiment [2], 15.06. Also, the EC50 in experiment [3] (Homo sapiens) is 710 nM. Besides, the DSS in experiment [3] worked out at 26.1.

On to `CCCCCCNC(=O)n1cc(F)c(=O)[nH]c1=O` [Carmofur], for which, in experiment [2], the sDSSmod is 12.42. This compound also registered an EC50 in experiment [3] (Homo sapiens) of 710 nM. This compound came in with a DSS in experiment [3] of 4.76.

On to `C[C@@H](Oc1cc(-c2cnn(C3CCNCC3)c2)cnc1N)c1c(Cl)ccc(F)c1Cl` [Crizotinib], for which the sDSSmod in experiment [2] stood at 22.74. This compound had an EC50 in experiment [3] (Homo sapiens) of 8030 nM.

`NS(=O)(=O)OC[C@@H]1C[C@@H](n2ccc3c(N[C@H]4CCc5ccccc54)ncnc32)C[C@@H]1O` [MLN-4924]: the results for the sDSSmod in experiment [4] and in experiment [5] were 10.87 and 17.05, respectively. In experiment [3] (Homo sapiens), this compound displayed an EC50 of more than 10000 nM. The DSS in experiment [3] is recorded as 0.51.

In the case of `C#Cc1cccc(Nc2ncnc3cc(OCCOC)c(OCCO)cc23)c1.Cl` [Desmethyl Erlotinib], the results for the sDSSmod in experiment [1] and in experiment [2] were 11.77 and 8.648, respectively. In addition, in experiment [3], the DSS is on record as 3.34.

Take `COc1cc2c(Nc3ccc(Br)cc3F)ncnc2cc1OCC1CCN(C)CC1` [Vandetanib]: the results for the sDSSmod in experiment [6], in experiment [1] and in experiment [2] were 7.027, 7.721 and 8.255, respectively. The compound further had an EC50 in experiment [3] (Homo sapiens) of 4460 nM. In experiment [3], this compound displayed a DSS of 0.13.

For `Nc1nc2[nH]cc(CCc3ccc(C(=O)N[C@@H](CCC(=O)O)C(=O)O)cc3)c2c(=O)[nH]1` [Pemetrexed], the sDSSmod in experiment [4] was 14.75; in experiment [6], -15.3102; in experiment [5] it was 14.62; in experiment [2], 25.32. The half-maximal effective concentration (EC50) in experiment [3] (Homo sapiens) is 60 nM. For the same compound, in experiment [3], the DSS amounted to 16.15.
